In the METLIN SMRT retention time set (Domingo-Almenara et al. 2019):

Experiment: gradient 5% acetonitrile 3 min, to 50% in 2 min, to 85% in 15 min, held 3 min, 100 µL/min
Details: column: Zorbax Extend-C18 2.1 x 50 mm; eluents: water / acetonitrile, 0.1% formic acid
Method in brief: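 Each retention time is based on an adduct peak selected computationally and verified by manual inspection. Measurements used HPLC–quadrupole time-of-flight mass spectrometry in positive and negative ionization mode on mixtures of ~100 pure standards. Chromatography ran on a Zorbax Extend-C18 column (2.1 × 50 mm, 1.8 μm) at 100 μL/min with water and acetonitrile, each containing 0.1% formic acid, and dead and dwell volumes of 40 μL and 900 μL.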

SMILES	RP-LC retention time
O=c1c2cc3c(cc2nc(SCc2nc(-c4ccc(Cl)cc4)no2)n1CC1CCCO1)OCO3 (stereo not given)	1230 s
Fc1cnccc1CN1CC2(CCCCC2)CC1COc1ccncc1 (stereo not given)	747 s
Cc1nn(C)c(C)c1-c1cc(C(=O)O)[nH]n1	574 s
CCOc1cc(=O)n2c(c1C(=O)Nc1ccc(SC)cc1)CCCC2	754 s
CCS(=O)(=O)N1N=C(c2cccs2)CC1c1ccc2nccnc2c1 (stereo not given)	724 s
COC(=O)C(C)NC(=O)NC1CCN(C2=NS(=O)(=O)C(c3ccccc3)=C2C)CC1 (stereo not given)	718 s
Cc1nnc2ccc(NC(C)C)nn12	676 s
O=C(NCCc1csc(-c2cccs2)n1)C1CCN(C(=O)CCc2ccccc2)CC1	839 s
CCCn1c(=O)c2c(nc3n2CCCCN3c2ccc(OCC)cc2)n(C)c1=O	973 s
Cc1ccc(CNC(=O)c2c(C)sc3ccn(CC(C)C)c(=O)c23)o1	683 s
O=C(CSc1nnc2c3sc(N4CCCC4)nc3ncn12)Nc1ccc(F)cc1Cl	869 s
CC(C)CNC(=O)N1CCC(CCOc2ccncc2)CC1	594 s
CC(C)c1nnc(-c2cccnc2N2CCN(C(=O)c3ccc4cc[nH]c4c3)CC2)o1	777 s
O=c1ccc(S(=O)(=O)N2CCOCC2)cn1Cc1ccc(F)cc1	759 s
CCCCCNC(=O)C1CCCN(c2ncc(-c3ccccc3)cn2)C1 (stereo not given)	1090 s
CCc1noc2nc(CCC(=O)NCc3ccco3)nc(N3CCCCC3)c12	829 s
Cn1cc2c3c(cccc31)CN(C(=O)c1ccc(F)cc1Cl)CC2	958 s
COc1ccccc1CNC(=O)C1CCN(C(=O)c2nn(C)c3c2CN(C(=O)C(C)C)CC3)CC1	681 s
Cc1ccc(S(=O)(=O)N2CCCOC2CNC(=O)C(=O)NCc2cccs2)cc1 (stereo not given)	806 s
COCC(C)NC(=O)c1ccc2c(c1)CCCN2S(C)(=O)=O (stereo not given)	679 s

SMILES	RP-LC retention time
CCOC(=O)c1c(C)[nH]c(C)c1S(=O)(=O)N1CCC(C(=O)NCCN2CCCCCC2)CC1	592 s
O=C(NC1(c2nc(-c3cnccn3)no2)CCCCC1)c1ccco1	712 s
Cc1ccc(-c2ccc(-n3nc(C)c(S(=O)(=O)Nc4ccccc4)c3C)nn2)cc1	1060 s
CCC(=O)Nc1ccc2c(c1)N(C(=O)c1cccs1)CCC2	717 s
CS(=O)(=O)N(Cc1ccncc1)C1CN(C(=O)c2ccoc2)C1	552 s
Cc1cc2c(cc1S(=O)(=O)N1CCC(C(=O)N3CCCCC3)CC1)OCC(=O)N2	734 s
Cc1c(Cl)cccc1S(=O)(=O)N1CCc2c(c(-c3nnc(-c4ccc(F)cc4)o3)nn2C)C1	1090 s
Cc1ccn2cc(-c3ccc(NS(=O)(=O)c4cc(C(C)C)ccc4C)cc3)nc2n1	745 s
O=C(C1CCCN(c2ncccc2-c2noc(C3CCC3)n2)C1)N1CCCCC1 (stereo not given)	928 s
Cn1c(N2CCN(C(=O)c3ccc(F)c(Cl)c3)CC2)cc(=O)n(C)c1=O	686 s
CCOc1ccccc1N1CCN(S(=O)(=O)c2nn(C)cc2C(=O)NC2CCCCC2)CC1	1110 s
Cc1ccc(C(=O)N2CCCCCNC(=O)[C@@H]3CCC[C@@H]32)s1	740 s
Cc1nc(NC(=O)Cn2nc3c(cc2=O)CCCCC3)sc1C	786 s
CCOC(=O)c1cc(C2CC2)nc2c1c(=O)n(Cc1cccc(Br)c1)c(=O)n2C	1280 s
Cc1ccc(S(=O)(=O)N2CCC(n3cnc4c(C)cccc4c3=O)CC2)cc1F	1030 s
CCn1c(C(=O)N2CCOCC2)cc2c(=O)oc3ccccc3c21	713 s
CCN1CCN(C(=O)CN2c3ccc(C(C)C)cc3-c3ccccc3S2(=O)=O)CC1	712 s
O=C(CC1CCCN(c2cn[nH]c(=O)c2)C1)N1CCC2(CC1)OCCO2 (stereo not given)	604 s
Cc1cccc(OCC(=O)c2ccc3c(c2)N(C(C)C(=O)N2CCCC2)C(=O)CO3)c1C (stereo not given)	922 s
O=C(Cn1ncc2c(c1=O)N(C1CC1)C(=O)CS2)Nc1ccc2c(c1)OCCO2	693 s

The next lines start with the values.

RP-LC retention time	SMILES
1040 s	Clc1ccccc1-c1nc(-c2ccncc2)no1
859 s	COc1ccc(CNC(=O)C2(c3ccc(NS(C)(=O)=O)cc3)CCCCC2)cc1
718 s	Cc1ccc2nc(C(=O)NCc3ccccc3Cl)cn2c1
863 s	Cc1ccc(S(=O)(=O)N2CCC(n3c(-c4ccco4)nc4cccnc43)C2)cc1 (stereo not given)
724 s	COc1cc(NC(=O)CSc2nnnn2C)c2ncccc2c1
978 s	COC(=O)c1c(-c2ccc(Cl)cc2)noc1N1CCN(C(=O)c2ccco2)CC1
1120 s	CCOc1ccc(-c2ccc(=O)n(Cc3nc(-c4cccc(C)c4)no3)n2)cc1
1340 s	CCOc1ccc(C2Cn3nnc(-c4nc(-c5ccc(C(F)(F)F)cc5)no4)c3CO2)cc1 (stereo not given)
691 s	COc1ccc(C(=O)Nc2cnc(N3CCCC3)nc2)cc1
726 s	O=C(Nc1ccc2nc3n(c(=O)c2c1)CCC3)Nc1ccccc1Br
734 s	COc1ccc(CNC(=O)CN2CCN(Cc3ccc(C)cc3)C(=O)C2=O)cc1
750 s	CCCNC(=O)c1ncn2c1C(=O)N(CCC)C(C)(C(=O)NCc1ccc(C)cc1)C2 (stereo not given)
795 s	COc1cccc(NC(=O)c2cnc3c(c2)c(=O)n(C)c(=O)n3C)c1
1240 s	COc1nc2ccccc2nc1N1CCCC(C(=O)N2CCN(c3ccccc3F)CC2)C1 (stereo not given)
1230 s	Cc1ccc(F)cc1NC(=O)c1cc(C(C)C)n2nccc2n1
696 s	O=C(Nc1c(-c2ccccc2)nc2ccccn12)c1ccc(Cl)c([N+](=O)[O-])c1
1140 s	CC(C)c1nc(-n2cccc2)sc1C(=O)NCc1ccccc1
1020 s	CCOC(=O)Cc1c(C)nc2cc(-c3ccccc3)nn2c1C
804 s	COc1ccc(OCc2noc(CNC(=O)Nc3ccccc3F)n2)cc1
621 s	Cc1nc(OCC(=O)NCc2ccccc2)c2ccccc2n1
726 s	COc1cccc(NC(=O)N2CCN(Cc3nc4ccc(Cl)cc4o3)CC2)c1
858 s	CCOc1cccc(-c2noc(Cn3ccn(-c4ccccc4)c(=O)c3=O)n2)c1
768 s	Cc1ccc(NC(=O)CN2C(=O)CCS(=O)(=O)c3ccccc32)c(C)c1
746 s	COc1ccccc1CNC(=O)C1CCCN(c2ncnc3c2oc2ccccc23)C1 (stereo not given)
596 s	Cc1ccc(C(=O)NCCc2nc3cccnc3n2C)s1

RP-LC retention time	SMILES
737 s	O=C(O)c1cccc(Nc2c(-c3cccc(Cl)c3)nc3cnccn23)c1
701 s	CCOC(=O)c1c(C)oc2nc(C)nc(NCCCN(C)c3ccccc3)c12
1330 s	CCOC(=O)c1c(C)oc2nc(C)nc(NCCc3ccc(C)cc3)c12
1320 s	COc1ccccc1N1CCN(c2ncccc2-c2nc(-c3ccc(Cl)cc3)no2)CC1
802 s	COc1cccc(-c2noc(C3CCCN3C(=O)NC(C)C)n2)c1 (stereo not given)
947 s	Cc1ccccc1C(=O)Nc1cc(-c2cccs2)no1
841 s	CCCn1cc(CCNS(=O)(=O)c2ccc(C)cc2)c2cccnc21
874 s	CCOc1ccc(-n2nnnc2CN2CCN(S(=O)(=O)c3cccs3)CC2)cc1
1020 s	O=S(=O)(c1ccccc1F)N1CCC(c2noc(-c3ccccc3)n2)CC1
989 s	COc1cc(-c2nc3cccc(C)n3c2Nc2ccc(C)cc2)ccc1O
925 s	CCCN1C(=O)COc2ccc(-c3noc(-c4cccc(NC(C)=O)c4)n3)cc21
678 s	O=C(NCc1ccc(Cl)cc1)c1cn2c(n1)COCC2
829 s	COc1ccc(N2CCN(C(=O)C3CCCN(c4nnc(-n5cccc5)s4)C3)CC2)cc1 (stereo not given)
572 s	CNC(=O)c1ccc(Cn2cnc3cccnc32)cc1
594 s	O=S(=O)(NCCN1CCN(c2ccccc2F)CC1)c1cc(F)ccc1F
822 s	NC(=O)C1=C(N)c2ccccc2C1c1ccccc1 (stereo not given)
1030 s	Cn1c(C(=O)N(CCc2ccccc2)Cc2ccccc2)cc2c(=O)n3ccccc3nc21
873 s	COc1ccc(CN2C=C(C(=O)OCc3noc(C)n3)C(C)=NS2(=O)=O)cc1
713 s	Cc1ccc2c(=O)c(C(=O)N3CCCCC3)cn(CC(=O)Nc3ccccc3)c2n1
836 s	CCOC(=O)c1nc(NCCc2ccc(OCC)cc2)c2ccccc2n1
857 s	O=C(CN1CCN(Cc2ccccc2F)C1=O)N1CCN(c2ccccc2F)CC1
1090 s	CCN1C(=O)c2cc(S(=O)(=O)Nc3ccc(F)c(Cl)c3)ccc2Oc2cccnc21
594 s	CCOC(=O)c1ccc(NC(=O)Cn2cnc3ccccc32)cc1
685 s	COc1ccc(C(C)NC(=O)C2CCN(c3cncnc3N3CCCCC3)CC2)cc1 (stereo not given)
871 s	CCN(Cc1ccccc1)C(=O)C1CCN(c2ncnc3c2oc2ccccc23)CC1
